# Laboratory results taken from patent US20050075398A1, “Neuroprotectin D1 protects against cellular apoptosis, stroke damage, alzheimer's disease and retinal diseases” (priority 2003, published 2005).
# Tests used:
# [1] = tested on: polymorphonuclear leukocyte infiltration; assay: Zymosan-induced peritonitis, leukocyte infiltration; type: in vivo, mouse; conditions: 100 ng i.v. bolus 1.5 min before Zymosan A; lavage at 2 h
# Procedure: The inhibition of leukocyte infiltration in zymosan-induced peritonitis by 4,17S-diHDHA and 10,17S-docosatriene (NPD1) was tested. […] Peritonitis was induced in 6- to 8-week-old male FVB mice (Charles River Laboratories) by peritoneal injection of 1 mg Zymosan A. The compounds 4,17S- and 10,17S-diHDHA were injected by intravenous bolus injection, 1.5 minutes before Zymosan A treatment. Two hours after induction of peritonitis, rapid peritoneal lavages were collected, and cell type enumeration was performed.
# IL-1β gene expression = assay: HGU133 GeneChip DNA array in HN cells: IL-1β; type: cell-based, human; conditions: Aβ42 25 μM, DHA 50 nM or NPD1 50 nM, 18 h, nsc = no significant change
# CEX-1 gene expression = assay: HGU133 GeneChip DNA array in HN cells: CEX-1; type: cell-based, human; conditions: Aβ42 25 μM, DHA 50 nM or NPD1 50 nM, 18 h, nsc = no significant change
# Bcl-xL gene expression = assay: HGU133 GeneChip DNA array in HN cells: Bcl-xL; type: cell-based, human; conditions: Aβ42 25 μM, DHA 50 nM or NPD1 50 nM, 18 h, nsc = no significant change
# Bik gene expression = assay: HGU133 GeneChip DNA array in HN cells: Bik; type: cell-based, human; conditions: Aβ42 25 μM, DHA 50 nM or NPD1 50 nM, 18 h, nsc = no significant change
# Description: RNA Isolation and Spectral Quality. Brain tissues were rapidly processed, and total RNA was extracted using Trizol reagent (Invitrogen, Carlsbad, Calif.). Total RNA quality and abundance were profiled using RNA Nano LabChips (Caliper Technologies, Mountainview, Calif.; Agilent Technologies, Palo Alto, Calif.).
# Probe Synthesis and GeneChip Hybridization. Biotinylated antisense cRNAs were synthesized from cDNA using the Superscript Choice System (Invitrogen) and Enzo Biorray High Yield RNA Transcript Labeling kits according to the manufacturer's protocols (Affymetrix) and as described in Colangelo, V., Schurr, J., Ball, M. J., Pelaez, R. P., Bazan, N. G., Lukiw, W. J. (2002) J. Neurosci. Res., 70: 462-473; and Lukiw, W. J. (2004) Neurochem. Research, 29: 1287-1297. Probes were hybridized against HU133Av2 GeneChip DNA arrays that interrogate approximately 33,000 full-length […] genes and expressed sequence tag (EST) clusters. […]
# GeneChip Data and Statistical Analysis. […] Volcano plots were plotted representing total gene expression patterns as a function of fold-change as compared to expression patterns of age-matched controls as plotted against p, as calculated by an analysis of variance (ANOVA). […] Statistical significance was analyzed using a two-way factorial analysis of variance (p, ANOVA; Statistical Analysis System; SAS Institute, Cary, N.C. ).
# Bcl-2 = assay: Western blot of Bcl-2 in ARPE-19 cells under TNFα/H2O2; type: cell-based, human; conditions: 50 nM; TNFα plus H2O2 (400 or 800 μM) 6 h
# Procedure: Analysis of pro- and anti-apoptotic proteins in ARPE-19 cells: Bcl-2 family proteins were analyzed by Western-blot analysis. In brief, 20-μg equivalents of each cell extract were subjected to electrophoresis on a 8-16% gel (Promega, Madison, Wis.) at 125 volts for 2 h. The proteins were transferred to nitrocellulose membrane at 30 volts for 1 h at 4° C. The membranes were subjected to treatment with primary antibodies of Bcl-2, Bcl-xL, Bax, and Bad for 1 h at room temperature, and probed 30 min with secondary antibody, goat anti-rabbit Ig:HRPO and HRP-conjugated anti-biotin antibody. (BD Sciences—Pharminogen, San Diego, Calif.) Then proteins were evaluated using an ECL kit. (Amersham Biosciences Corp., Piscataway, N.J.)
# Using the same TNFα/H2O2 concentrations, Bcl-2 proteins were assayed. Cells were grown for 72 h after plating, placed in serum-free medium for 1 h, then incubated with TNFα/H2O2 for 6 h. Protein expression and Western-blot analysis were performed as described in Example 13. Data in FIGS. 14A, 14B, 14C and 14D represent four independent experiments with triplicate samples in each case. Anti-apoptotic protein Bcl-xL was enhanced in ARPE-19 cells by TNFα/H2O2 (800 μM) (FIG. 14B, first bar), whereas Bcl-2 was not changed (FIG. 14A, first bar).
# ARPE-19 cells = assay: A2E-induced apoptosis in ARPE-19 cells (Hoechst staining); type: cell-based, human; conditions: A2E up to 200 μM
# Procedure: To test the ability of NPD1 to inhibit A2E oxidative stress, ARPE-19 cells grown in 6-well plates were transfected by Fugene 6 with NF-κB promoter sequence linked to a luciferase reporter gene and with IκB-EGFP. Promoterless β-galactosidase was co-transfected in ARPE-19 cells to determine the transfection efficiency. Four hours after transfection, cells were washed and further incubated 8 to 10 h before adding inducers. Two different set of cells were used. One set of cells was serum-starved 5 h before the addition of A2E and TNF-α/H2O2, and further incubated for 20-24 h before harvesting. The other set of cells was not serum-starved or further incubated. Luciferase activity was measured. The IκB-EGFP probe was measured by fluorescence confocal microscopy, and Hoechst-positive cells were identified.
smiles,measurement,setting,value
"CC/C=C\C[C@H](O)\C=C/C=C/C=C/[C@H](O)C/C=C\C/C=C\CCC(=O)O [NPD1, 10,17S-docosatriene]",inhibition of leukocyte infiltration,[1],potent inhibition
same,"IL-1β gene expression, fold change over untreated controls",IL-1β gene expression,nsc
same,"CEX-1 gene expression, fold change over untreated controls",CEX-1 gene expression,nsc
same,"Bcl-xL gene expression, fold change over untreated controls",Bcl-xL gene expression,+2.4 fold
same,"Bik gene expression, fold change over untreated controls",Bik gene expression,nsc
same,effect on Bcl-2 expression,Bcl-2,increased expression
same,effect on A2E-induced apoptosis,ARPE-19 cells,inhibited
